# Assay results as given in ChEMBL document CHEMBL1201862, “PubChem BioAssay data set” (2004).
#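 How tested: cells in 96-well plates exposed to compound for 48 hours at five concentrations. The concentration for 50% growth inhibition is given as GI50.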 Activity calls are given as the source filed them. Rule as the data show it: active = GI50 up to about 1.1 µM and inactive = higher.
# How the values were obtained:
# Test in all cases: NCI tumour cell line growth inhibition, 48 h
# OVCAR-4 = system: OVCAR-4
# OVCAR-8 = system: OVCAR-8
# K562 = system: K562
# M14 = system: M14
# SNB-75 = system: SNB-75
# UACC-257 = system: UACC-257
# HT-29 = system: HT-29
# SK-OV-3 = system: SK-OV-3
# SK-MEL-2 = system: SK-MEL-2
# SK-MEL-5 = system: SK-MEL-5
# SF-268 = system: SF-268
# NCI-H460 = system: NCI-H460
# MOLT-4 = system: MOLT-4
# HOP-18 = system: HOP-18
# A549 = system: A549
# HCT-116 = system: HCT-116
# UO-31 = system: UO-31
# NCI/ADR-RES = system: NCI/ADR-RES
# MDA-N = system: MDA-N
# BT-549 = system: BT-549
Structure (SMILES),GI50 (OVCAR-4),GI50 (OVCAR-8),GI50 (K562),GI50 (M14),GI50 (SNB-75),GI50 (UACC-257),GI50 (HT-29),GI50 (SK-OV-3),GI50 (SK-MEL-2),GI50 (SK-MEL-5),GI50 (SF-268),GI50 (NCI-H460),GI50 (MOLT-4),GI50 (HOP-18),GI50 (A549),GI50 (HCT-116),GI50 (UO-31),GI50 (NCI/ADR-RES),GI50 (MDA-N),GI50 (BT-549)
COC(OC)c1cccc2c1C(=O)CCC1(CC2)OCCCCO1,> 100 µM (inactive),> 100 µM (inactive),> 100 µM (inactive),> 100 µM (inactive),> 100 µM (inactive),> 100 µM (inactive),> 100 µM (inactive),> 100 µM (inactive),> 100 µM (inactive),> 100 µM (inactive),> 100 µM (inactive),> 100 µM (inactive),> 100 µM (inactive),> 100 µM (inactive),> 100 µM (inactive),> 100 µM (inactive),> 100 µM (inactive),,,
O=C1NC(=O)C2C(=O)NC(=O)C1C2c1c(Cl)cccc1Cl (centres undefined),> 100 µM (inactive),> 66.2 µM (inactive),> 49.4 µM (inactive),> 100 µM (inactive),> 63.5 µM (inactive),> 67.9 µM (inactive),> 92.5 µM (inactive),> 100 µM (inactive),> 100 µM (inactive),> 100 µM (inactive),> 51.1 µM (inactive),> 42.2 µM (inactive),> 100 µM (inactive),> 100 µM (inactive),> 72.4 µM (inactive),> 42.6 µM (inactive),> 100 µM (inactive),,,
CC(=O)/C(=N\O)C(=O)Nc1ccc(Cl)cc1Cl,> 100 µM (inactive),> 100 µM (inactive),> 100 µM (inactive),> 100 µM (inactive),> 100 µM (inactive),> 100 µM (inactive),> 100 µM (inactive),> 100 µM (inactive),> 100 µM (inactive),> 100 µM (inactive),> 100 µM (inactive),> 100 µM (inactive),> 100 µM (inactive),43.1 µM (inactive),> 100 µM (inactive),> 100 µM (inactive),> 100 µM (inactive),,,
CCCCCCCCCCC(=O)CCCCCCC(=O)O,45.6 µM (inactive),17.8 µM (inactive),7.33 µM (inactive),20.5 µM (inactive),29.6 µM (inactive),82.6 µM (inactive),18.5 µM (inactive),53.8 µM (inactive),25.8 µM (inactive),15.5 µM (inactive),50.5 µM (inactive),16.5 µM (inactive),15.1 µM (inactive),16.9 µM (inactive),15.3 µM (inactive),13.8 µM (inactive),23.7 µM (inactive),,,
COc1cc([C@@H]2c3cc4c(cc3[C@@H](NC(=O)c3ccc(OC(C)=O)cc3)C3COC(=O)[C@@H]32)OCO4)cc(OC)c1O (some centres undefined),39.9 µM (inactive),2.48 µM (inactive),2.17 µM (inactive),2.56 µM (inactive),1.48 µM (inactive),8.32 µM (inactive),5.01 µM (inactive),2.47 µM (inactive),5.57 µM (inactive),1.99 µM (inactive),2.01 µM (inactive),0.03 µM (active),0.0298 µM (active),> 100 µM (inactive),0.275 µM (active),2.61 µM (inactive),14.3 µM (inactive),,,
C[C@H](NS(=O)(=O)c1ccc(NC(=O)c2ccccc2)cc1)C(=O)O,> 100 µM (inactive),> 100 µM (inactive),> 100 µM (inactive),> 100 µM (inactive),> 100 µM (inactive),> 100 µM (inactive),> 100 µM (inactive),> 100 µM (inactive),> 100 µM (inactive),> 100 µM (inactive),> 100 µM (inactive),> 100 µM (inactive),> 100 µM (inactive),> 100 µM (inactive),> 100 µM (inactive),,> 100 µM (inactive),,,
CN(C)CC1CCCC/C1=N\OC(=O)c1ccccc1 (centres undefined),> 100 µM (inactive),> 100 µM (inactive),> 100 µM (inactive),> 100 µM (inactive),> 100 µM (inactive),> 100 µM (inactive),> 100 µM (inactive),> 100 µM (inactive),> 100 µM (inactive),> 100 µM (inactive),> 100 µM (inactive),> 100 µM (inactive),> 100 µM (inactive),> 100 µM (inactive),> 100 µM (inactive),> 100 µM (inactive),> 100 µM (inactive),,,
N#Cc1ccc(Oc2cccc(Oc3ccccc3)c2)cc1C#N,36.7 µM (inactive),> 10 µM (inactive),41.4 µM (inactive),> 10 µM (inactive),1.35 µM (inactive),> 10 µM (inactive),> 10 µM (inactive),> 10 µM (inactive),64 µM (inactive),36.7 µM (inactive),48.2 µM (inactive),74.5 µM (inactive),30.8 µM (inactive),> 10 µM (inactive),42 µM (inactive),44.3 µM (inactive),14.9 µM (inactive),,,
Cc1c(/C=C2\CC/C(=C\c3[nH]c(C(=O)OC(C)(C)C)c(C)c3C)C2=O)[nH]c(C(=O)OC(C)(C)C)c1C,> 100 µM (inactive),> 100 µM (inactive),> 100 µM (inactive),> 100 µM (inactive),60.1 µM (inactive),> 100 µM (inactive),> 100 µM (inactive),> 100 µM (inactive),> 100 µM (inactive),> 100 µM (inactive),> 100 µM (inactive),> 100 µM (inactive),> 100 µM (inactive),> 100 µM (inactive),> 100 µM (inactive),> 100 µM (inactive),> 100 µM (inactive),,,
COc1cc2cc3c4cc(OC)c(OC)cc4cc[n+]3c(C)c2cc1OC.O=C([O-])CS(=O)(=O)O,17.7 µM (inactive),24.3 µM (inactive),61.1 µM (inactive),> 100 µM (inactive),12.3 µM (inactive),39.7 µM (inactive),53.3 µM (inactive),> 100 µM (inactive),> 100 µM (inactive),80 µM (inactive),0.811 µM (active),> 100 µM (inactive),> 100 µM (inactive),> 100 µM (inactive),> 100 µM (inactive),> 100 µM (inactive),> 100 µM (inactive),> 100 µM (inactive),49.4 µM (inactive),33.5 µM (inactive)
c1ccc2c(CNCCCCCCCCCCCCNCc3cccc4ccccc34)cccc2c1,1.58 µM (inactive),1.63 µM (inactive),0.467 µM (active),1.85 µM (inactive),1.79 µM (inactive),1.78 µM (inactive),1.64 µM (inactive),13.3 µM (inactive),1.59 µM (inactive),1.83 µM (inactive),2.22 µM (inactive),1.53 µM (inactive),1.22 µM (inactive),2.84 µM (inactive),1.85 µM (inactive),1.61 µM (inactive),1.64 µM (inactive),,,
